The values that follow come from US7230002B2, “Dipeptidyl peptidase IV inhibitors; processes for their preparation and compositions thereof” (Glenmark Pharmaceuticals Ltd., priority 2004, dated 2007).

This assay deals with T1, human recombinant Dipeptidyl peptidase IV enzyme (Homo sapiens, UniProt P27487).
T1 construct: purchased R & D Systems
In words: In-vitro DPP-IV assay (cleavage of Gly-Pro-AMC). The format is biochemical. To be noted: n = 3, substrate Gly-Pro-AMC, 30° C., 30 minutes, read-out: DPP-IV inhibition IC50. As for the experimental part: Protocol for In-Vitro DPP-IV Assay
DPPIV activity was determined by the cleavage rate of 7-amino-4-methyl coumarin (AMC) from synthetic substrate Glycyl-Prolyl-AMC. In brief, the assay was conducted by adding 10 ng of human recombinant Dipeptidyl peptidase IV enzyme (DPPIV, available commercially from R & D Systems) in 50 μl of the assay buffer (25 mM Tris, pH 7.4, 140 mM NaCl, 10 mM KCl, 1% BSA) to 96 well black flat bottom microtiter plates. The reaction was initiated by adding 50 μl of 100 μM substrate Gly-Pro-AMC. The incubation was carried out in the kinetic mode at 30° C. for 30 minutes. Fluorescence was measured using Fluorostar at excitation filter of 380 nm and emission filter of 460 nm). Test compounds and solvent controls were added as 1 μl additions. A standard curve of free amino methyl coumarin (AMC) was generated using 0–100 μM AMC in the assay buffer. The curve generated, which was linear was used for the interpolation of catalytic activity.
Test compounds dissolved in DMSO at 5–6 concentrations were tested in duplicate along with the solvent control and blank samples. Percent inhibition was calculated at each concentration with respect to the solvent control sample (no test compound added). IC50 values were calculated from 3 experiments using the prism software.

Where a name gives a salt, the structure may show the parent alone.

T1 sequence (P27487 whole entry): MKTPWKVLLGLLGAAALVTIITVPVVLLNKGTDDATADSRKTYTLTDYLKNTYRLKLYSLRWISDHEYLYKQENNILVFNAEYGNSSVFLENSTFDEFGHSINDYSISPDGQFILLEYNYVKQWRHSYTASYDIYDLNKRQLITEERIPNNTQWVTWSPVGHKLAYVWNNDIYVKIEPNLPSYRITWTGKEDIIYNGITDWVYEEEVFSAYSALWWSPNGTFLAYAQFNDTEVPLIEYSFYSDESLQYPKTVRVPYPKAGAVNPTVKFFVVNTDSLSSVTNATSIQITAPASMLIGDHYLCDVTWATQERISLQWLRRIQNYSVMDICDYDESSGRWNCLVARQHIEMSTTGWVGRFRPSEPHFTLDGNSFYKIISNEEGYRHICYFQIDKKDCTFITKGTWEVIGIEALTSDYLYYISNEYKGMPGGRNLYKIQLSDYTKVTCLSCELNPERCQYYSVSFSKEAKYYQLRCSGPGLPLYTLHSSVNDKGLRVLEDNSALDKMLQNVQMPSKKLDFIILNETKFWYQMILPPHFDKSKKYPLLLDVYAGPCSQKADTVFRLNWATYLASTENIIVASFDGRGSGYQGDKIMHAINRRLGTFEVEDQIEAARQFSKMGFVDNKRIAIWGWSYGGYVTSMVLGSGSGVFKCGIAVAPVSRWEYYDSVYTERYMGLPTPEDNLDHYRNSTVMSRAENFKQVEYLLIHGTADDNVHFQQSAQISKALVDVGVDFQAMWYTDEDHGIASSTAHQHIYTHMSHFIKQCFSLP

In the case of `N#C[C@@H]1CCCN1C(=O)CN[C@H]1CC[C@@H](CS(=O)(=O)c2ccccn2)C1` [Example-37, (2S)-1-{2-[(1S,3R)-3-(2-Pyridylsulfonylmethyl)cyclopentylamino]acetyl}-pyrrolidine-2-carbonitrile], the IC50 came to 66 nM.

In the case of `N#C[C@@H]1CCCN1C(=O)CN[C@H]1CC[C@@H](COc2ccc([N+](=O)[O-])cc2)C1` [Example-45, (2S)-1-{2-[(3R,1S)-3-(4-Nitrophenoxymethyl)cyclopentylamino]acetyl}-pyrrolidine-2-carbonitrile], the half-inhibitory concentration (IC50) was found to be 49.9 nM.

With `N#C[C@@H]1C[C@H](F)CN1C(=O)CN[C@@H]1CC[C@H](CNc2ccc([N+](=O)[O-])cc2F)C1` [Example-26], the half-inhibitory concentration (IC50) came to 5.16 nM. Under `N#C[C@@H]1CCCN1C(=O)CNC1CCC(CNc2ncccn2)C1` (mixture of isomers) [Example-19, (2S)-1-{2-[(3SR,1RS)-3-(2-Pyrimidinylaminomethyl)cyclopentylamino)acetyl}-pyrrolidine-2-carbonitrile dihydrochloride] stands 20 nM; under `N#Cc1ccc(OC[C@H]2CC[C@@H](NCC(=O)N3CCC[C@H]3C#N)C2)cc1F` [Example-49, (2S)-1-{2-[(3S,1R)-3-(4-Cyano-3-fluorophenoxymethyl)cyclopentylamino]acetyl}-pyrrolidine-2-carbonitrile], 23.5 nM; under `N#Cc1ccc(SCC2CCC(NCC(=O)N3CCC[C@H]3C#N)C2)nc1` (mixture of isomers) [Example-38, 6-((1SR,3RS)-3-{2-[(2S)-2-Cyanopyrrolidin-1-yl]-2-oxoethylamino}cyclopentyl-methylsulfanyl)nicotinonitrile], 9.42 nM. On to `N#Cc1ccc(NC[C@H]2CC[C@@H](NCC(=O)N3CCC[C@H]3C#N)C2)nc1` [Example-9, 6-((1S,3R)-3-{2-[(2S)-2-Cyanopyrrolidin-1-yl]-2-oxoethylamino}cyclopentylmethyl-amino)nicotinonitrile dihydrochloride], for which the IC50 stood at 6.27 nM. Under `N#Cc1ccc(OC[C@H]2CC[C@@H](NCC(=O)N3CCC[C@H]3C#N)C2)cc1` [Example-48, (2S)-1-{2-[(3S,1R)-3-(4-Cyanophenoxymethyl)cyclopentylamino]acetyl}-pyrrolidine-2-carbonitrile hydrochloride] stands 13.5 nM; under `N#C[C@@H]1CCCN1C(=O)CNC1CCC(CSc2ccccc2)C1` (mixture of isomers) [Example-28, (2S)-1-{2-[(3SR,1RS)-3-Phenylsulfanylmethylcyclopentylamino]acetyl}-pyrrolidine-2-carbonitrile], 22.3 nM; under `N#Cc1ccc(S(=O)(=O)CC2CCC(NCC(=O)N3CCC[C@H]3C#N)C2)nc1` (mixture of isomers) [Example-40, 6-((1SR,3RS)-3-{2-[(2S)-2-Cyanopyrrolidin-1-yl)-2-oxoethylamino}cyclopentyl-methylsulfonyl)nicotinonitrile], 78.7 nM. Under `N#C[C@@H]1CCCN1C(=O)CNC1CCC(CS(=O)(=O)c2ccccc2)C1` (mixture of isomers) [Example-29] stands 10 nM; under `N#C[C@@H]1CCCN1C(=O)CN[C@H]1CC[C@@H](CSc2ccccn2)C1` [Example-36, (2S)-1-{2-[(1S,3R)-3-(2-Pyridylsulfanylmethyl)cyclopentylamino]acetyl}-pyrrolidine-2-carbonitrile], 10.6 nM. In the case of `N#Cc1ccc(SCC2CCC(NCC(=O)N3CCC[C@H]3C#N)C2)nc1` (mixture of isomers) [Example-39, 6-((1SR,3RS)-3-{2-[(2S)-2-Cyanopyrrolidin-1-yl]-2-oxoethylamino}cyclopentyl-methylsulfanyl)nictinonitrile maleate], the IC50 is 11.1 nM. Turning to `N#Cc1ccc(NC[C@H]2CC[C@@H](NCC(=O)N3CCC[C@H]3C#N)C2)nc1` [Example-8, 6-((1S,3R)-3-{2-[(2S)-2-Cyanopyrrolidin-1-yl]-2-oxoethylamino}cyclopentylmethyl-amino)nicotinonitrile], the concentration for half-maximal inhibition (IC50) turned out to be 10.6 nM.

In the case of `N#C[C@@H]1CCCN1C(=O)CN[C@H]1C=C[C@@H](CSc2ccccn2)C1` [Example-35, (2S)-1-{2-[(4S,1R)-4-(2-Pyridylsulfanylmethyl)cyclopent-2-enealino]acetyl}-pyrrolidine-2-carbonitrile], the IC50 amounted to 70.9 nM. As for `N#Cc1ccc(NCC2C=CC(NCC(=O)N3CCC[C@H]3C#N)C2)nc1` (mixture of isomers) [Example-12], the half-inhibitory concentration (IC50) is 11.2 nM. As for `N#Cc1ccc(NCC2CCC(NCC(=O)N3C[C@@H](F)C[C@H]3C#N)C2)nc1` (mixture of isomers) [Example-14, 6-((1SR,3RS)-3-{2-[(2S,4S)-2-Cyano-4-fluoropyrrolidin-1-yl]-2-oxoethylamino}-cyclopentylmethylamino)nicotinonitrile], the IC50 was 3.58 nM. As to `N#C[C@@H]1CCCN1C(=O)CN[C@@H]1CC[C@H](CNc2nnnn2-c2ccccc2)C1` [Example-22, (2S)-1-{2-[(3S,1R)-3-(1-Phenyl-1H-1,2,3,4-tetraazol-5-ylaminomethyl)cyclopentyl-amino]acetyl}-pyrrolidine-2-carbonitrile], the IC50 amounted to 10.4 nM.

One may read the IC50 as the concentration that inhibits the measured activity by half.
